Earlier results on 3 compounds are cited in patent US8293789B2, “Method of preparing a latanoprost opthalmic solution and the resulting solution” (priority 2004, dated 2012).

The test system of data set [1] is patients with open angle glaucoma or ocular hypertension. As to conditions: for circadian / nocturnal reduction of intraocular pressure: day versus night.
Experiment in data set [2]: not given
The source holds these as a separate data set.

As for `CC(C)(C)NC[C@H](O)COc1nsnc1N1CCOCC1` [timolol], the “circadian / nocturnal reduction of intraocular pressure” value (shortened to “circadian / nocturnal reduction”) in data set [1] is recorded as “less effective during the night”.

As for `CCN[C@H]1C[C@H](C)S(=O)(=O)c2sc(S(N)(=O)=O)cc21` [Dorzolamide], in data set [1], the “circadian / nocturnal reduction” value was “less effective than latanoprost”.

For the compound `CC(C)OC(=O)CCC/C=C\C[C@@H]1[C@@H](CC[C@@H](O)CCc2ccccc2)[C@H](O)C[C@@H]1O` [latanoprost, isopropilic ester of the prostaglandin F2α 17-phenyl-13,14dihydro], the “time to peak concentration in the aqueous humor” value (after local administration) was 2 h. The plasmatic mid life (in humans, sentence follows statements on latanoprost acid) was 17 min. The “time to maximum concentration in the aqueous humor” value (studies on humans, following administration) was “approximately two”. In addition, the “circadian / nocturnal reduction” value in data set [1] is reported as “more uniform circadian reduction”. Also, the “effectiveness of one sole daily application versus double daily application of other glaucoma agents” value in data set [1] (latanoprost 0.005%, patients with open angle glaucoma or ocular hypertension) is “at least as effective”. In addition, in data set [1] (patients treated with latanoprost, after 6 months of treatment), the “patients with a reduction in the intraocular pressure of at least 30%” value is 52%. For the same compound, the “effectiveness as hypotensive agent compared with unoprostone” value in data set [1] (patients, versus unoprostone) is on record as “better results”. The “solubility in organic solvents” value in data set [2] (acetone, ethanol, ethyl acetate, isopropanol, methanol and octanol) is listed as “freely soluble”. In addition, the solubility in acetonitrile result in data set [2] (acetonitrile) was “highly soluble”. Moreover, the solubility in water entry in data set [2] (water) was “practically insoluble”.
